Like-named read-outs stand apart in the source and are kept apart here.

Experiment [1] concerns the target T1, human B1R receptor (CHO K1 cells stably transfected with the human B1R gene) (Homo sapiens, UniProt P46663).
T1 construct: expressed in transfected cells; host or cells: CHO K1 cells (Chinese hamster ovary), stably transfected
T1 sequence (P46663 1-353): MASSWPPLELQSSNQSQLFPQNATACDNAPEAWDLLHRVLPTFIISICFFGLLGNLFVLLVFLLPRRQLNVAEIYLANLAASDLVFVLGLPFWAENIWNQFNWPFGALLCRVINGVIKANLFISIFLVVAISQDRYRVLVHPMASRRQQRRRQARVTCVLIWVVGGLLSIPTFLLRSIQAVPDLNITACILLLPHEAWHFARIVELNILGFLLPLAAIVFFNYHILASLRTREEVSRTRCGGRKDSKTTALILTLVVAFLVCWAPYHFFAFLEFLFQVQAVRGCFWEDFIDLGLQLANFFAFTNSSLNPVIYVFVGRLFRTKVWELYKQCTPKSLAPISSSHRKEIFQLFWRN
Kind of experiment: Functional study on the bradykinin receptor 1 (B1R), Ca2+ fluorescence (Fluo-4) FLIPR/Novostar assay, hB1R cells. In kind it is cell-based. The method in brief: (§1)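 Stably transfected CHO K1 cells carrying human or rat B1R were Fluo-4 loaded and Ca2+ fluorescence read by FLIPR or Novostar. Compounds were added first at 10 μM for % activation, then the EC80 agonist was applied after 6-20 min (human: Lys-Des-Arg9-bradykinin; rat: Des-Arg9-bradykinin). % inhibition is relative to maximum achievable inhibition, and IC50 comes from concentration series.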

Experiment [2] concerns the target T2, B1R receptor of the rat (CHO K1 cells stably transfected with the B1R gene of the rat) (Rattus norvegicus, UniProt P97583).
T2 construct: expressed in transfected cells; host or cells: CHO K1 cells (Chinese hamster ovary), stably transfected
T2 sequence (P97583 1-337): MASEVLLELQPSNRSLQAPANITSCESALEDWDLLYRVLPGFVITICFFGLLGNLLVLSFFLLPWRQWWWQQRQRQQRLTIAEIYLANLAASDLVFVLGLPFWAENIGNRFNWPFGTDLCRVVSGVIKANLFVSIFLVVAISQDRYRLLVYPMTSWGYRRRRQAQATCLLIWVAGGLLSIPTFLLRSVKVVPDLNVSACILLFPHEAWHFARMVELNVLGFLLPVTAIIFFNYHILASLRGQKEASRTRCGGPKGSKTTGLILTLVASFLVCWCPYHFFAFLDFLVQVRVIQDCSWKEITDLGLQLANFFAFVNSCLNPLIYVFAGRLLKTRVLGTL
Briefly: Functional study on the bradykinin receptor 1 (B1R), Ca2+ fluorescence (Fluo-4) FLIPR/Novostar assay, rB1R cells. In kind it is cell-based. The conditions noted are these: for inhibition at 10 µM: CHO-K1, 10 μM. The method, boiled down:
as §1

[3] abbreviates: CHO-K1, read-out: % inhibition (human B1R) at 10 μM.
The mark [4] stands for this setting: read-out: % inhibition (rat B1R) at 10 μM.
Setting [5] is: CHO-K1, read-out: % Inhibition (h-B1R) at 10 μM.
[6] abbreviates: read-out: % Inhibition (r-B1R) at 10 μM.

The term inhibition denotes the relative decrease from the control value, in per cent. On to `CN(C(=O)c1ccc2c(c1)[C@H](NC(=O)C1CCC1)CC2)C1CCN(c2ccncc2)CC1` [Example H-18, (3R)-3-(Cyclobutanecarbonylamino)-N-methyl-N-(1-pyridin-4-yl-piperidin-4-yl)-2,3-dihydro-1H-indene-5-carboxylic acid amide], for which the figures for the inhibition at 10 µM in experiment [1] (setting [3]) and in experiment [2] (setting [4]) were 100% and 102%, respectively.
Consider `O=C(NCCC1CCN(c2ccncc2)CC1)c1ccc2c(c1)C(NC(=O)c1ccccc1Cl)CC2` (stereo not shown) [CC_H-34, 3-[(2-Chloro-benzoyl)amino]-N-[2-(1-pyridin-4-yl-piperidin-4-yl)-ethyl]-2,3-dihydro-1H-indene-5-carboxylic acid amide], for which the inhibition at 10 µM is 99% in experiment [1] (setting [5]) and 104% in experiment [2] (setting [6]).
For the compound `CCN(C(=O)c1ccc2c(c1)[C@H](NC(=O)c1ccccc1Cl)CC2)C1CCN(c2ccnc(C)c2)CC1` [Example H-79, (3R)-3-[(2-Chloro-benzoyl)amino]-N-ethyl-N-[1-(2-methyl-pyridin-4-yl)-piperidin-4-yl]-2,3-dihydro-1H-indene-5-carboxylic acid amide], the results for the inhibition at 10 µM in experiment [1] (setting [3]) and in experiment [2] (setting [4]) were 100% and 110%, respectively.
The corresponding values for `CN(C(=O)c1ccc2c(c1)[C@H](NC(=O)c1ccccc1Cl)CC2)C1CCN(c2ccnc(N3CCCC3)c2)CC1` [Example H-124, (3R)-3-[(2-Chloro-benzoyl)amino]-N-methyl-N-[1-(2-pyrrolidin-1-yl-pyridin-4-yl)-piperidin-4-yl]-2,3-dihydro-1H-indene-5-carboxylic acid amide] are 100% and 108%.
Turning to `CN(C(=O)c1ccc2c(c1)C(NC(=O)c1cnccc1C(F)(F)F)CC2(C)C)C1CCN(c2ccncc2)CC1` (stereo not shown) [CC_H-12, N-[3,3-Dimethyl-6-[methyl-(1-pyridin-4-yl-piperidin-4-yl)-carbamoyl]-1,2-dihydro-inden-1-yl]-4-(trifluoromethyl)-pyridine-3-carboxylic acid amide], the figures for the inhibition at 10 µM in experiment [1] (setting [5]) and in experiment [2] (setting [6]) were 100% and 104%, respectively.
With `CN(C(=O)c1ccc2c(c1)[C@H](NC(=O)C1(c3ccccc3F)CCCC1)CC2)C1CCN(c2ccncc2)CC1` [Example H-47, (3R)-3-[[1-(2-Fluorophenyl)-cyclopentanecarbonyl]amino]-N-methyl-N-(1-pyridin-4-yl-piperidin-4-yl)-2,3-dihydro-1H-indene-5-carboxylic acid amide], the inhibition at 10 µM stood at 100% in experiment [1] (setting [3]) and 104% in experiment [2] (setting [4]).
Consider `Cc1cc(N2CCC(N(C)C(=O)c3ccc4c(c3)[C@H](NC(=O)CC(C)C)CC4)CC2)ccn1` [Example H-85, (3R)-N-Methyl-3-(3-methyl-butanoylamino)-N-[1-(2-methyl-pyridin-4-yl)-piperidin-4-yl]-2,3-dihydro-1H-indene-5-carboxylic acid amide], for which the inhibition at 10 µM turned out to be 100% in experiment [1] (setting [3]) and 103% in experiment [2] (setting [4]).
The matching figures for `CC(C)N(C(=O)c1ccc2c(c1)[C@H](NC(=O)c1ccccc1Cl)CC2)C1CCN(c2ccncc2)CC1` [Example H-178, (3R)-3-[(2-Chloro-benzoyl)amino]-N-isopropyl-N-(1-pyridin-4-yl-piperidin-4-yl)-2,3-dihydro-1H-indene-5-carboxylic acid amide]: 100% and 101%.
With `CN(C(=O)c1ccc2c(c1)C(N(C)C(=O)c1sccc1Cl)CC2)C1CCN(c2ccncc2)CC1` (stereo not shown) [CC_H-30, 3-Chloro-N-methyl-N-[6-[methyl-(1-pyridin-4-yl-piperidin-4-yl)-carbamoyl]-2,3-dihydro-1H-inden-1-yl]-thiophene-2-carboxylic acid amide], the inhibition at 10 µM in experiment [1] (setting [5]) was 99%; in experiment [2] (setting [6]), 104%.
In the case of `CN(C(=O)c1ccc2c(c1)[C@H](NC(=O)c1ccccc1Cl)CC2)C1CCN(c2ccccn2)CC1` [Example H-23, (3R)-3-[(2-Chloro-benzoyl)amino]-N-methyl-N-(1-pyridin-2-yl-piperidin-4-yl)-2,3-dihydro-1H-indene-5-carboxylic acid amide], the figures for the inhibition at 10 µM in experiment [1] (setting [3]) and in experiment [2] (setting [4]) were 97% and 93%, respectively.
The corresponding values for `CN(C(=O)c1ccc2c(c1)[C@H](NC(=O)c1ccccc1Cl)CC2)C1CCN(c2ncnc3ccccc23)CC1` [Example H-127, (3R)-3-[(2-Chloro-benzoyl)amino]-N-methyl-N-(1-quinazolin-4-yl-piperidin-4-yl)-2,3-dihydro-1H-indene-5-carboxylic acid amide] are 96% and 91%.
The matching figures for `CN(C(=O)c1ccc2c(c1)[C@H](NC(=O)c1ccccc1Cl)CC2)C1CCN(c2ccc(Cl)cc2)CC1` [Example H-54, (3R)-3-[(2-Chloro-benzoyl)amino]-N-[1-(4-chlorophenyl)-piperidin-4-yl]-N-methyl-2,3-dihydro-1H-indene-5-carboxylic acid amide]: 29% and 93%.
Regarding `CN(C(=O)c1ccc2c(c1)C(NC(=O)c1c(Cl)cccc1C(F)(F)F)CC2(C)C)C1CCN(c2ccncc2)CC1` (stereo not shown) [CC_H-17, 3-[[2-Chloro-6-(trifluoromethyl)-benzoyl]amino]-N,1,1-trimethyl-N-(1-pyridin-4-yl-piperidin-4-yl)-2,3-dihydro-indene-5-carboxylic acid amide], in experiment [1] (setting [5]), the inhibition at 10 µM came out at 98%. Further, in experiment [2], the “% Inhibition (r-B1R) at 10 μM” value is recorded as 104%.
On to `CN(C(=O)c1ccc2c(c1)C(NC(=O)c1cccc(Cl)c1Cl)CC2)C1CCN(c2ccc3cnccc3c2)CC1` (stereo not shown) [CC_H-52, 3-[(2,3-Dichloro-benzoyl)amino]-N-(1-isoquinolin-6-yl-piperidin-4-yl)-N-methyl-2,3-dihydro-1H-indene-5-carboxylic acid amide], for which the inhibition at 10 µM was determined as 99% in experiment [1] (setting [5]) and 98% in experiment [2] (setting [6]).
For `Cc1cc(N2CCC(N(C)C(=O)c3ccc4c(c3)[C@H](N(C(=O)c3ccccc3Cl)C(C)C)CC4)CC2)nc(C)n1` [Example H-144, (3R)-3-[(2-Chloro-benzoyl)-isopropyl-amino]-N-[1-(2,6-dimethyl-pyrimidin-4-yl)-piperidin-4-yl]-N-methyl-2,3-dihydro-1H-indene-5-carboxylic acid amide], the inhibition at 10 µM in experiment [1] (setting [3]) turned out to be 91%; in experiment [2] (setting [4]) it was 77%.
The corresponding values for `O=C(NCC1CCN(c2ccncc2)CC1)c1ccc2c(c1)[C@H](NC(=O)c1ccccc1Cl)CC2` [Example H-03, (3R)-3-[(2-Chloro-benzoyl)amino]-N-[(1-pyridin-4-yl-piperidin-4-yl)-methyl]-2,3-dihydro-1H-indene-5-carboxylic acid amide] are 15% and 108%.
Turning to `CN(C(=O)c1ccc2c(c1)C(NC(=O)c1cc(F)ccc1Cl)CC2)C1CCN(c2ccncc2)CC1` (stereo not shown) [CC_H-26, 3-[(2-Chloro-5-fluoro-benzoyl)amino]-N-methyl-N-(1-pyridin-4-yl-piperidin-4-yl)-2,3-dihydro-1H-indene-5-carboxylic acid amide], in experiment [1] (setting [5]), the inhibition at 10 µM came to 100%. Further, the “% Inhibition (r-B1R) at 10 μM” value in experiment [2] was 103%.
Consider `CN(C(=O)c1ccc2c(c1)[C@H](NC(=O)c1ccccc1Cl)CC2)C1CCN(C(=O)CCN2CCCCC2)CC1` [Example H-90, (3R)-3-[(2-Chloro-benzoyl)amino]-N-methyl-N-[1-(3-piperidin-1-yl-propanoyl)-piperidin-4-yl]-2,3-dihydro-1H-indene-5-carboxylic acid amide], for which the inhibition at 10 µM is 62% in experiment [1] (setting [3]) and 105% in experiment [2] (setting [4]).
The matching figures for `Cc1cc(N2CCC(N(C)C(=O)c3ccc4c(c3)[C@H](N(C)C(=O)c3ccc(F)cc3Cl)CC4)CC2)nc(C)n1` [Example H-168, (3R)-3-[(2-Chloro-4-fluoro-benzoyl)-methyl-amino]-N-[1-(2,6-dimethyl-pyrimidin-4-yl)-piperidin-4-yl]-N-methyl-2,3-dihydro-1H-indene-5-carboxylic acid amide]: 100% and 104%.
As to `CN(C(=O)c1ccc2c(c1)[C@H](NC(=O)c1ccccc1Cl)CC2)C1CCN(c2ccncc2F)CC1` [Example H-117, (3R)-3-[(2-Chloro-benzoyl)amino]-N-[1-(3-fluoro-pyridin-4-yl)-piperidin-4-yl]-N-methyl-2,3-dihydro-1H-indene-5-carboxylic acid amide], the results for the inhibition at 10 µM in experiment [1] (setting [3]) and in experiment [2] (setting [4]) were 99% and 105%, respectively.

For the origin of these results see patent US8680159B2, “Bradykinin 1 receptor modulating compounds” (Gruenenthal GmbH, priority 2010, dated 2014).
